Assay results taken from the NIST ThermoML archive (doi:10.1021/je300692s).
± gives the expanded uncertainty stated by the source.

Assay: activity coefficient (dimensionless); of the first substance listed, at infinite dilution; xn = mol fraction of the nth substance listed
Details: 101 kPa, Liquid, Chromatography, x1 = 0

| SMILES | activity coefficient (322.6 K) | activity coefficient (332.5 K) | activity coefficient (342.8 K) | activity coefficient (322.9 K) | activity coefficient (333 K) | activity coefficient (343.1 K) | activity coefficient (323 K) |
| --- | --- | --- | --- | --- | --- | --- | --- |
| C1COCCO1 [1,4-dioxane] + CCCCCCCCCC[N+]1(C)CCCC1.O=S(=O)([N-]S(=O)(=O)C(F)(F)F)C(F)(F)F | 0.38 ± 0.05 | 0.35 ± 0.04 | 0.38 ± 0.05 |  |  |  |  |
| CCCCCCC [heptane] + CCCCCCCCCC[N+]1(C)CCCC1.O=S(=O)([N-]S(=O)(=O)C(F)(F)F)C(F)(F)F | 4.91 ± 0.52 | 4.75 ± 0.5 | 4.62 ± 0.49 |  |  |  |  |
| ClC(Cl)(Cl)Cl [tetrachloromethane] + CCCCCCCCCC[N+]1(C)CCCC1.O=S(=O)([N-]S(=O)(=O)C(F)(F)F)C(F)(F)F | 1.32 ± 0.14 | 1.12 ± 0.11 | 1.31 ± 0.13 |  |  |  |  |
| c1ccccc1 [benzene] + CCCCCCCCCC[N+]1(C)CCCC1.O=S(=O)([N-]S(=O)(=O)C(F)(F)F)C(F)(F)F | 0.62 ± 0.07 | 0.63 ± 0.07 | 0.64 ± 0.07 |  |  |  |  |
| CC(C)OC(C)C [diisopropyl ether] + CCCCCC[N+]1(C)CCCC1.O=S(=O)([N-]S(=O)(=O)C(F)(F)F)C(F)(F)F |  |  |  | 3.18 ± 0.33 | 3.56 ± 0.37 | 3.53 ± 0.37 |  |
| CCCC(C)=O [pentan-2-one] + CCCCCCCC[N+]1(C)CCCC1.O=S(=O)([N-]S(=O)(=O)C(F)(F)F)C(F)(F)F |  |  |  |  | 0.51 ± 0.06 | 0.48 ± 0.05 | 0.49 ± 0.05 |
| CCCCCCCC [octane] + CCCCCCCC[N+]1(C)CCCC1.O=S(=O)([N-]S(=O)(=O)C(F)(F)F)C(F)(F)F |  |  |  |  | 7.8 ± 0.82 | 6.54 ± 0.69 | 8.1 ± 0.85 |
| CCC(C)CC [3-methylpentane] + CCCCCCCC[N+]1(C)CCCC1.O=S(=O)([N-]S(=O)(=O)C(F)(F)F)C(F)(F)F |  |  |  |  | 4.52 ± 0.47 | 4.08 ± 0.43 | 4.61 ± 0.48 |
| CCO [ethanol] + CCCCCCCC[N+]1(C)CCCC1.O=S(=O)([N-]S(=O)(=O)C(F)(F)F)C(F)(F)F |  |  |  |  | 1.26 ± 0.13 | 0.98 ± 0.1 | 1.33 ± 0.14 |
| CC(C)CO [2-methyl-1-propanol] + CCCCCCCC[N+]1(C)CCCC1.O=S(=O)([N-]S(=O)(=O)C(F)(F)F)C(F)(F)F |  |  |  |  | 1.44 ± 0.15 | 1.22 ± 0.13 | 1.59 ± 0.17 |
| c1ccsc1 [thiophene] + CCCCCC[N+]1(C)CCCC1.O=S(=O)([N-]S(=O)(=O)C(F)(F)F)C(F)(F)F |  |  |  | 0.7 ± 0.07 | 0.71 ± 0.07 | 0.72 ± 0.08 |  |
| Cc1ccc(C)cc1 [1,4-dimethylbenzene] + CCCCCCCCCC[N+]1(C)CCCC1.O=S(=O)([N-]S(=O)(=O)C(F)(F)F)C(F)(F)F | 1 ± 0.1 | 1.01 ± 0.1 | 1.03 ± 0.1 |  |  |  |  |
| CCCCCCCCC [nonane] + CCCCCCCCCC[N+]1(C)CCCC1.O=S(=O)([N-]S(=O)(=O)C(F)(F)F)C(F)(F)F | 8.32 ± 0.87 | 8.01 ± 0.84 | 7.65 ± 0.8 |  |  |  |  |
| CCCCCCCCCCC [undecane] + CCCCCC[N+]1(C)CCCC1.O=S(=O)([N-]S(=O)(=O)C(F)(F)F)C(F)(F)F |  |  |  | 34.4 ± 3.6 | 31 ± 3.3 | 30.1 ± 3.2 |  |
| CCCCO [butan-1-ol] + CCCCCC[N+]1(C)CCCC1.O=S(=O)([N-]S(=O)(=O)C(F)(F)F)C(F)(F)F |  |  |  | 2.28 ± 0.24 | 2.86 ± 0.3 | 2.04 ± 0.21 |  |
| C#CCCCCC [1-heptyne] + CCCCCC[N+]1(C)CCCC1.O=S(=O)([N-]S(=O)(=O)C(F)(F)F)C(F)(F)F |  |  |  | 2.24 ± 0.24 | 2.79 ± 0.29 | 2.78 ± 0.29 |  |
| CCCCCCCCCCC [undecane] + CCCCCCCCCC[N+]1(C)CCCC1.O=S(=O)([N-]S(=O)(=O)C(F)(F)F)C(F)(F)F | 11.7 ± 1.2 | 11.2 ± 1.2 | 10.7 ± 1.1 |  |  |  |  |
| c1ccccc1 [benzene] + CCCCCC[N+]1(C)CCCC1.O=S(=O)([N-]S(=O)(=O)C(F)(F)F)C(F)(F)F |  |  |  | 0.76 ± 0.08 | 0.77 ± 0.08 | 0.78 ± 0.08 |  |
| ClC(Cl)Cl [trichloromethane] + CCCCCCCC[N+]1(C)CCCC1.O=S(=O)([N-]S(=O)(=O)C(F)(F)F)C(F)(F)F |  |  |  |  | 0.58 ± 0.06 | 0.53 ± 0.06 | 0.56 ± 0.06 |
| Cc1cccc(C)c1 [1,3-dimethylbenzene] + CCCCCC[N+]1(C)CCCC1.O=S(=O)([N-]S(=O)(=O)C(F)(F)F)C(F)(F)F |  |  |  | 1.28 ± 0.13 | 1.39 ± 0.14 | 1.42 ± 0.15 |  |
| C1CCCCC1 [cyclohexane] + CCCCCCCC[N+]1(C)CCCC1.O=S(=O)([N-]S(=O)(=O)C(F)(F)F)C(F)(F)F |  |  |  |  | 3.31 ± 0.35 | 3.06 ± 0.32 | 3.45 ± 0.36 |
| Cc1ccccc1C [1,2-dimethylbenzene] + CCCCCCCC[N+]1(C)CCCC1.O=S(=O)([N-]S(=O)(=O)C(F)(F)F)C(F)(F)F |  |  |  |  | 0.87 ± 0.09 | 0.97 ± 0.1 | 0.92 ± 0.09 |

| SMILES | activity coefficient (322.6 K) | activity coefficient (332.5 K) | activity coefficient (342.8 K) | activity coefficient (322.9 K) | activity coefficient (333 K) | activity coefficient (343.1 K) | activity coefficient (323 K) |
| --- | --- | --- | --- | --- | --- | --- | --- |
| CCCCCCCCCC [decane] + CCCCCCCC[N+]1(C)CCCC1.O=S(=O)([N-]S(=O)(=O)C(F)(F)F)C(F)(F)F |  |  |  |  | 12.5 ± 0.75 | 11 ± 0.66 | 14.8 ± 0.88 |
| CCOCC [diethyl ether] + CCCCCCCCCC[N+]1(C)CCCC1.O=S(=O)([N-]S(=O)(=O)C(F)(F)F)C(F)(F)F | 1.27 ± 0.13 | 1.25 ± 0.13 | 1.25 ± 0.13 |  |  |  |  |
| CCCCCCCCC [nonane] + CCCCCCCC[N+]1(C)CCCC1.O=S(=O)([N-]S(=O)(=O)C(F)(F)F)C(F)(F)F |  |  |  |  | 10.7 ± 0.64 | 9.14 ± 0.55 | 11.3 ± 0.67 |
| CC1CCCCC1 [methylcyclohexane] + CCCCCCCCCC[N+]1(C)CCCC1.O=S(=O)([N-]S(=O)(=O)C(F)(F)F)C(F)(F)F | 3.38 ± 0.36 | 3.28 ± 0.34 | 3.15 ± 0.33 |  |  |  |  |
| CCC(C)CC [3-methylpentane] + CCCCCC[N+]1(C)CCCC1.O=S(=O)([N-]S(=O)(=O)C(F)(F)F)C(F)(F)F |  |  |  | 6.52 ± 0.69 | 6.46 ± 0.68 | 6.37 ± 0.67 |  |
| C=CCCCC [hex-1-ene] + CCCCCCCCCC[N+]1(C)CCCC1.O=S(=O)([N-]S(=O)(=O)C(F)(F)F)C(F)(F)F | 2.68 ± 0.28 | 2.62 ± 0.28 | 2.57 ± 0.27 |  |  |  |  |
| CCCO [propan-1-ol] + CCCCCCCC[N+]1(C)CCCC1.O=S(=O)([N-]S(=O)(=O)C(F)(F)F)C(F)(F)F |  |  |  |  | 1.29 ± 0.13 | 1.14 ± 0.12 | 1.49 ± 0.15 |
| Cc1ccccc1 [toluene] + CCCCCCCCCC[N+]1(C)CCCC1.O=S(=O)([N-]S(=O)(=O)C(F)(F)F)C(F)(F)F | 0.77 ± 0.08 | 0.78 ± 0.08 | 0.8 ± 0.08 |  |  |  |  |
| CCCO [propan-1-ol] + CCCCCCCCCC[N+]1(C)CCCC1.O=S(=O)([N-]S(=O)(=O)C(F)(F)F)C(F)(F)F | 1.62 ± 0.17 | 1.47 ± 0.15 | 1.32 ± 0.14 |  |  |  |  |
| CCc1ccccc1 [ethylbenzene] + CCCCCCCCCC[N+]1(C)CCCC1.O=S(=O)([N-]S(=O)(=O)C(F)(F)F)C(F)(F)F | 1.01 ± 0.05 | 1.04 ± 0.06 | 1.06 ± 0.06 |  |  |  |  |
| C#CCCCCC [1-heptyne] + CCCCCCCC[N+]1(C)CCCC1.O=S(=O)([N-]S(=O)(=O)C(F)(F)F)C(F)(F)F |  |  |  |  | 1.89 ± 0.2 | 1.9 ± 0.2 | 1.94 ± 0.2 |
| c1ccncc1 [pyridine] + CCCCCCCCCC[N+]1(C)CCCC1.O=S(=O)([N-]S(=O)(=O)C(F)(F)F)C(F)(F)F | 0.47 ± 0.05 | 0.47 ± 0.05 | 0.47 ± 0.05 |  |  |  |  |
| CCc1ccccc1 [ethylbenzene] + CCCCCC[N+]1(C)CCCC1.O=S(=O)([N-]S(=O)(=O)C(F)(F)F)C(F)(F)F |  |  |  | 1.38 ± 0.14 | 1.43 ± 0.15 | 1.46 ± 0.15 |  |
| Cc1ccccc1C [1,2-dimethylbenzene] + CCCCCCCCCC[N+]1(C)CCCC1.O=S(=O)([N-]S(=O)(=O)C(F)(F)F)C(F)(F)F | 0.92 ± 0.09 | 0.94 ± 0.1 | 0.96 ± 0.1 |  |  |  |  |
| C#CCCCC [1-hexyne] + CCCCCCCC[N+]1(C)CCCC1.O=S(=O)([N-]S(=O)(=O)C(F)(F)F)C(F)(F)F |  |  |  |  | 1.58 ± 0.16 | 1.34 ± 0.14 | 1.57 ± 0.16 |
| CCO [ethanol] + CCCCCCCCCC[N+]1(C)CCCC1.O=S(=O)([N-]S(=O)(=O)C(F)(F)F)C(F)(F)F | 1.46 ± 0.15 | 1.34 ± 0.14 | 1.22 ± 0.13 |  |  |  |  |
| CC1CCCC1 [methylcyclopentane] + CCCCCCCCCC[N+]1(C)CCCC1.O=S(=O)([N-]S(=O)(=O)C(F)(F)F)C(F)(F)F | 2.9 ± 0.3 | 2.76 ± 0.29 | 2.66 ± 0.28 |  |  |  |  |
| CCC[N+](=O)[O-] [1-nitropropane] + CCCCCCCC[N+]1(C)CCCC1.O=S(=O)([N-]S(=O)(=O)C(F)(F)F)C(F)(F)F |  |  |  |  | 0.52 ± 0.06 | 0.51 ± 0.06 | 0.55 ± 0.06 |
| CCOCC [diethyl ether] + CCCCCCCC[N+]1(C)CCCC1.O=S(=O)([N-]S(=O)(=O)C(F)(F)F)C(F)(F)F |  |  |  |  | 1.34 ± 0.14 | 1.14 ± 0.12 | 1.34 ± 0.14 |
| CCC(C)=O [butanone] + CCCCCC[N+]1(C)CCCC1.O=S(=O)([N-]S(=O)(=O)C(F)(F)F)C(F)(F)F |  |  |  | 0.42 ± 0.05 | 0.42 ± 0.05 | 0.39 ± 0.05 |  |
| Cc1cccc(C)c1 [1,3-dimethylbenzene] + CCCCCCCCCC[N+]1(C)CCCC1.O=S(=O)([N-]S(=O)(=O)C(F)(F)F)C(F)(F)F | 0.99 ± 0.1 | 1 ± 0.1 | 1.03 ± 0.1 |  |  |  |  |
| CCCCCC [hexane] + CCCCCCCCCC[N+]1(C)CCCC1.O=S(=O)([N-]S(=O)(=O)C(F)(F)F)C(F)(F)F | 3.97 ± 0.42 | 3.78 ± 0.4 | 3.68 ± 0.39 |  |  |  |  |
